Patent US8871741B2, “Inhibition of TNF-α induced activation of NFKB by pentosan polysulfate” (Icahn School of Medicine at Mount Sinai, priority 2010, dated 2014)

Tests used:
[1] = system: Watanabe heritable hypercholesterolemic rabbits (WHHL); experiment: Progression of established atherosclerosis in WHHL rabbits, morphologic analysis of aorta; assay type: in vivo, rabbit
Protocol: The degree of aortic atherosclerosis was evaluated by measuring the percent lesion area on the surface of the whole intimal (surface area of lesion/surface area of the whole intima) in the region between the aortic arch and the emergence of the renal arteries. Moreover, serial cross-sectional tissue samples (≈3 mm in length) taken from the aortic arch to the […] were post-fixed in paraformaldehyde (4% wt/vol.) and processed for histological analysis. The specimens were then embedded in paraffin, and 4-μm-thick sections were stained with hematoxylin and eosin (H&E). The ratio of intima to media (I/M ratio) was measured by computer-aided morphometric analysis in three consecutive cross-sectional sections of the aortic arch and the abdominal aorta, near the origin of the renal arteries, as described (Shindo J, et al., Circulation 1999; 99: 2150-2156). To avoid errors due to the heterogeneity of atherosclerotic lesions, the cross sections containing the thickest atherosclerotic lesions were selected individually from the aortic arch and used for the analysis of the cross-sectional areas of atherosclerotic lesions (Shindo J, et al., Circulation 1999; 99: 2150-2156). Percentage of the area occupied by macrophages and collagen were measured by computer-aided morphometric analysis on aortic cross sections stained immunohistochemically with RAM-11 antibody (DAKO Corp.) or Sirius red, respectively.

[2] = Plasma lipid and lipoprotein analyses in WHHL rabbits; assay type: in vivo, rabbit; conditions: for Free cholesterol / Phospholipids / Total cholesterol / Triglycerides: mean ± SEM, 5 animals
Protocol: Blood was drawn from rabbits after a 12-hour fast into tubes containing EDTA at the beginning of the study, every two weeks during treatment with the atherogenic diet, and at the end of the study. The total cholesterol and triglyceride concentrations (Sigma) as well as unesterified cholesterol and phospholipids (Wako Chemicals, Richmond, Va.) were determined on plasma samples using enzymatic methods on a Hitachi 911 Autoanalyzer (Boehringer Mannheim). Post-heparin hepatic lipase activity was determined as described (Iverius P H, Brunzell J D. Am J Physiol 1985; 249: E107-E114).

TIMP-1, -2, and -3 = experiment: Reverse zymography of aortic extracts; assay type: in vivo, rabbit; conditions: PPS-treated WHHL rabbits, 75 days HC-diet
Protocol: (§1) MMP activity in aortic extracts and conditioned media from monocytes was assessed, as previously described (Jacot T A, et al., Lab Invest. 1996; 75:791-79). Briefly, aortic segments were homogenized and extracted in RIPA buffer (25 mM Tris, pH 7.4, 150 mM KCl, 5 mM EDTA, 1% Nonidet P-40, 0.5% sodium deoxycholate, and 0.1% SDS). Insoluble material was precipitated by centrifugation, and soluble extracts were collected and stored at −20° C. for further analysis. For in vitro experiments, cell supernatants were centrifuged to remove cellular debris, and diluted appropriately to normalize for cell number. Aortic extracts and conditioned media were then mixed with sample buffer (1% SDS, 0.08 M Tris pH 6.8, 4% glycerol, and 0.006% bromophenol blue), and loaded onto a 10% gelatin polyacrylamide gel, and processed as described (Jacot T A, et al., Lab Invest. 1996; 75:791-79). For reverse zymography, samples were loaded onto a 15% gelatin polyacrylamide gel containing 0.5% porcine gelatin and 6 μg recombinant gelatinase A, and processed as described (Elliot S J, et al., J Am Soc Nephrol. 1999; 10: 62-68).

MMP-2 = experiment: Zymography of U937 cell supernatants, MMP-2; assay type: cell-based, human
Protocol: Human pro-monocytic U937 cells were obtained from American Type Culture Collection (Manassas, Va.) and grown in RPMI medium supplemented with 10% FBS. U937 cells were plated in six-well plates at a density of 5×10^6 cells/ml. The cells were then stimulated with 10 ng/ml TNF-α, in the presence or absence of either increasing concentrations of PPS (10-100 μg/ml) or heparin (100 μg/ml), and incubated at 37° C. for 3 hours. Following stimulation, cells were placed in 0.1% BSA-serum-free medium for 16-18 hours. The media was then collected, centrifuged, and supernatants were stored at −80° C. for the assessment of MMP activity. The cell number was determined by direct cell counting.
as §1

MMP-2 and MMP-9 = experiment: Zymography of supernatants of human peripheral blood-derived macrophages; assay type: cell-based; conditions: TNF-α stimulated human peripheral blood-derived macrophages, 100 μg/ml PPS
Protocol: Human peripheral blood monocytes were isolated as previously described (Valone F H, Epstein L B. J Immunol. 1988; 141: 3945-3950), and maintained in medium 199 supplemented with 2% human serum for in vitro differentiation into macrophages (Camussi G, et al., J Exp Med. 1987; 166: 1390-1404).
as §1

monocytic cells = experiment: Cell viability by trypan blue staining; assay type: cell-based, human
[3] = system: MCP-1, RANTES, CXCL-1 mRNA; experiment: Real-time PCR of chemokine mRNA in renal cortex; assay type: in vivo, mouse; conditions: PPS treated 22 month-old diabetic mice; P<0.01 vs. DN
Protocol: Total RNA was isolated from renal cortex using a PureYield RNA Midiprep kit (Promega, Madison, Wis.). The preparation was free of DNA contamination and 500 ng of total RNA from each sample was reverse-transcribed as previously described (Zheng F, Striker G E, Esposito C, Lupia E, Striker L J. Kidney Int 1998, 54:1999-2007; Zheng F, et al., Am Pathol 2003, 162:1339-1348). The levels of MCP-1 (monocyte chemoattractant protein-1), CXCL1 (c-x-c motif ligand 1), MIP2 (macrophage inflammatory protein 2), RANTES (regulated on activation, normal T cell expressed and secreted), ICAM-1 ([…] adhesion molecule 1), GRP78 (glucose regulatory protein 78), CHOP, and IL-6 (interleukin 6) mRNA were determined by real-time polymerase chain reaction (PCR). The primers used for the measurement were:
mRNA levels were corrected by the levels of β-actin or GAPDH mRNA. The expression of TNFα mRNA in kidney was determined by both a real time and a regular PCR using the primer of forward, 5′-[…]-3′ (SEQ ID NO: 17), reverse, 5′-[…]-3′ (SEQ ID NO: 18). GAPDH and β-actin mRNA levels were measured in the same sample.

[4] = 45 days HC-diet, PPS group before start of PPS
[5] = 75 days HC-diet, PPS in drinking water for the last 30 days
[6] = Baseline (3 months of age), PPS group before treatment
[7] = U937 cells, dose-response experiments

Substance: pentosan polysulfate [PPS]
- intima/media ratio (I/M) compared to WHHL rabbits fed a HC-diet for 45 days ([1]; HC-diet 45 days, then oral PPS for an additional 30 days): not significantly different
- area containing macrophages, relative to the total plaque area ([1]; RAM-11 staining, aortic cross sections, 75 days HC-diet, PPS last 30 days, mean±SEM): 35.56±1.51%
- percent surface area of the intima occupied by lesions, reduction compared to water-treated controls ([1]; WHHL rabbits, HC-diet 75 days, PPS 30 mg/kg BW daily in drinking water for the last 30 days): approximately one-third
- intima/media ratio (I/M) compared to water-treated controls ([1]; aortic arch and abdominal aorta, 75 days HC-diet, oral PPS for the last 30 days): significantly lower
- Sirius red staining (collagen) in plaques ([1]; aortic arch sections, 75 days HC-diet, PPS last 30 days, mean±SEM): 47.43±2.93%
- Free cholesterol [2, 4]: 1038.52 ± 128.80 mg/dL
- Phospholipids [2, 4]: 1241.09 ± 142.75 mg/dL
- Total cholesterol [2, 4]: 2133.28 ± 85.04 mg/dL
- Triglycerides [2, 4]: 331.28 ± 86.61 mg/dL
- Free cholesterol [2, 5]: 785.46 ± 93.22 mg/dL
- Phospholipids [2, 5]: 878.17 ± 107.98 mg/dL
- Total cholesterol [2, 5]: 1565.40 ± 212.07 mg/dL
- Triglycerides [2, 5]: 184.10 ± 30.19 mg/dL
- Free cholesterol [2, 6]: 282.92 ± 13.03 mg/dL
- Phospholipids [2, 6]: 574.59 ± 26.44 mg/dL
- Total cholesterol [2, 6]: 901.18 ± 50.30 mg/dL
- Triglycerides [2, 6]: 762.91 ± 72.13 mg/dL
- plasma lipid levels after 75 days of HC-diet versus 45 days ([2]; PPS-treated WHHL rabbits, a trend towards reduction was observed): not significantly different
- activity of TIMP-1, -2, and -3 in aortic extracts (TIMP-1, -2, and -3): marked increase
- MMP-2 activity, reduction by PPS treatment (MMP-2; U937 cells stimulated with 10 ng/ml TNF-α, 100 μg/ml PPS, P<0.05): 37.73%±12.17%
- concentration at which the PPS effect on MMP activity was evident (MMP-2; [7]): 25 µg/mL
- concentration at which the PPS effect on MMP activity was maximal (MMP-2; [7]): 75 to 100 µg/mL
- MMP-2 activity, decrease by PPS treatment (MMP-2; unstimulated U937 cells, 100 μg/ml PPS, figure data as percent of control, P<0.01): 45.40%±9.68%
- effect on MMP production (MMP-2 and MMP-9): inhibitory effect
- effect on cell viability (monocytic cells): no effect
- mRNA levels of MCP-1, RANTES, and CXCL-1 in renal cortices [3]: levels similar to 22 month-old non-diabetic
